From patent publication US6979686B1, “Substituted pyrazoles as p38 kinase inhibitors” (Pharmacia Corporation, priority 2001, dated 2005)
pIC50: −log10 of the molar value. Like-named read-outs stand apart in the source and are kept apart here.

Key:
[1] = test system: TNF-α, U937 human histiocytic lymphoma cell line; assay: LPS stimulation of TNF production by U937 cells; format: cell-based; conditions: for U937 Cell % inhib @ conc. (uM): @ 1.0 uM; for inhibition at 1 µM: U-937, @ 1.0 uM
Method: Maintenance and Differentiation of the U937 Human Histiocytic Lymphoma Cell Line:
Fifty million cells in 100 ml media were induced to terminal monocytic differentiation by 24 hour incubation with 20 ng/ml phorbol 12-myristate 13-acetate (Sigma). The cells were washed by centrifugation (200×g for 5 min) and resuspended in 100 ml fresh medium. After 24-48 hours, the cells were harvested, centrifuged, and resuspended in culture medium at 2 million cells/ml.
LPS Stimulation of TNF Production by U937 Cells:
Compounds were prepared as 10 mM stock solutions in DMSO and diluted in culture medium to yield a final DMSO concentration of 0.1% in the cell assay. LPS (E coli, 100 ng/ml final concentration) was then added at a volume of 0.02 ml. After 4 hour incubation at 37° C., the amount of TNF-α released in the culture medium was quantitated by ELISA. Inhibitory potency is expressed as IC50 (μM).
In vitro whole cell assay for measuring the ability of the compounds to inhibit TNF production in human U937 cells stimulated with LPS are shown in the column identified as: • “U937 Cell IC50, uM or % inhib @ conc., (uM)”

human p38 kinase alpha = molecular target: T1, human p38 kinase alpha (Homo sapiens, UniProt Q16539); assay: p38 kinase in vitro assay, phosphorylation of biotinylated PHAS-I with 32P-ATP; format: biochemical; conditions: for P38 alpha kinase IC50, uM or % inhib @ conc. (uM): % inhib: @ 100.0 uM; for P38 alpha kinase % inhib @ conc. (uM): @ 1.0 uM
T1 construct: GST (N, cleaved yes); made in house; host or cells: E. coli DH10B
T1 sequence (Q16539 whole entry): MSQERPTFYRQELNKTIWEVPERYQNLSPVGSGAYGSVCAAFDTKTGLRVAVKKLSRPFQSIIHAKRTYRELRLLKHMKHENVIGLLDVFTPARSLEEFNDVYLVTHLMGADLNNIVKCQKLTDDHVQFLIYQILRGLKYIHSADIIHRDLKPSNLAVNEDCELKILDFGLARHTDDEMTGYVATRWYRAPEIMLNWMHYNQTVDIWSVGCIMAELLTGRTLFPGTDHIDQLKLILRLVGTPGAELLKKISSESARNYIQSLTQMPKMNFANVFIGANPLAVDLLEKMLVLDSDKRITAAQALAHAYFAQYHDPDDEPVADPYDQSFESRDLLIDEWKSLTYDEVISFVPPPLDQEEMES

[2] = TNF production, U937 cells stimulated with LPS
[3] = Homo sapiens, TNF production, LPS-stimulated U937 cells, read-out: U937 Cell % inhib @ conc.
[4] = in vitro P38-alpha kinase, read-out: P38 alpha kinase IC50
[5] = Homo sapiens, TNF production, U937 cells stimulated with LPS, read-out: U937 Cell % inhib @ conc.
[6] = in vitro P38-alpha kinase inhibition, read-out: P38 alpha kinase IC50
[7] = Homo sapiens, U-937, TNF production, human U937 cells stimulated with LPS, read-out: U937 Cell IC50

SMILES: Cc1c(-c2ccncc2)c(-c2ccc(F)cc2)nn1CC(=O)N(C)CCCC1c2ccccc2CCc2ccccc21 [Example B-2387]
- IC50 ([1]; TNF production, U937 cells stimulated with LPS, read-out: U937 Cell IC50, uM or % inhib @ conc. (uM): IC50): > 10 µM
- P38 alpha kinase IC50, uM or % inhib @ conc. (uM): % inhib (human p38 kinase alpha): 50.0% @

SMILES: O=C(NCCc1[nH]nc(-c2ccc(F)cc2)c1-c1ccncc1)c1ccc(F)c(F)c1F [Example B-0997]
- U937 Cell % inhib @ conc. (uM) [1, 2]: 22.0% @
- P38 alpha kinase % inhib @ conc. (uM) (human p38 kinase alpha): 69.0% @

SMILES: O=S(=O)(c1cccc(Cl)c1)N1CCC(c2[nH]nc(-c3ccc(F)cc3)c2-c2ccncc2)CC1 [Example B-1465]
- inhibition at 1 µM [1, 3]: 31%
- pIC50 (human p38 kinase alpha; [4]): 5.49

SMILES: Cc1ccc(S(=O)(=O)N2CCC(c3[nH]nc(-c4ccc(F)cc4)c3-c3ccncc3)CC2)cc1 [Example B-1473]
- inhibition at 1 µM [1, 3]: 14%
- pIC50 (human p38 kinase alpha; [4]): 5.91

SMILES: COC(=O)[C@H](CCSC)NC(=O)Cn1nc(-c2ccc(F)cc2)c(-c2ccncc2)c1C [Example B-2324]
- U937 Cell % inhib @ conc. ([1]; @ 10.0 uM, TNF production, LPS-stimulated U937 cells): 36.0% @
- P38 alpha kinase % inhib @ conc. (human p38 kinase alpha; @ 10.0 uM): 58.0% @

SMILES: O=S(=O)(NCCc1[nH]nc(-c2ccc(F)cc2)c1-c1ccncc1)c1cccc(Cl)c1Cl [Example B-1073]
- inhibition at 1 µM [1, 5]: 21%
- pIC50 (human p38 kinase alpha; [6]): > 7.00

SMILES: O=C(c1ccccc1Cl)N1CCC(c2[nH]nc(-c3ccc(F)cc3)c2-c2ccncc2)CC1 [Example B-1397]
- inhibition at 1 µM [1, 3]: 85%
- pIC50 (human p38 kinase alpha; [4]): 6.04

SMILES: CCCNC(=O)Cn1nc(-c2ccc(F)cc2)c(-c2ccncc2)c1C [Example B-2270]
- inhibition at 10 µM ([1]; Homo sapiens, U-937, @ 10.0 uM, TNF production, LPS-stimulated U937 cells, read-out: U937 Cell % inhib @ conc.): 31%
- pIC50 (human p38 kinase alpha; [4]): 6.14

SMILES: O=C(c1ccc(I)cc1)N1CCC(c2[nH]nc(-c3ccc(F)cc3)c2-c2ccncc2)CC1 [Example B-1366]
- pIC50 [1, 7]: 6.57
- pIC50 (human p38 kinase alpha; [4]): 7.40

SMILES: O=C(NCCc1[nH]nc(-c2ccc(F)cc2)c1-c1ccncc1)c1ccc(F)cc1C(F)(F)F [Example B-1139]
- inhibition at 1 µM [1, 5]: 29%
- pIC50 (human p38 kinase alpha; [6]): 7.39

SMILES: Cc1c(-c2ccncc2)c(-c2ccc(F)cc2)nn1CC(=O)N1CCCCC1CCN1CCCCC1 (stereo not shown) [Example B-2411]
- U937 Cell IC50, uM or % inhib @ conc. (uM): % inhib ([1]; @ 10.0 uM, TNF production, U937 cells stimulated with LPS): 13.0% @
- P38 alpha kinase IC50, uM or % inhib @ conc. (uM): % inhib (human p38 kinase alpha): 26% @

SMILES: CC(=O)OC(C)C(=O)NC(Cc1ccccc1)c1[nH]nc(-c2ccc(F)cc2)c1-c1ccncc1 (stereo not shown) [Example B-0809]
- U937 Cell % inhib @ conc. (uM) [1, 2]: 7.0% @
- pIC50 (human p38 kinase alpha; [6]): 5.91

SMILES: O=C(NC(Cc1ccccc1)c1[nH]nc(-c2ccc(F)cc2)c1-c1ccncc1)c1ccccc1 (stereo not shown) [Example B-0819]
- pIC50 [1, 7]: < 6.00
- pIC50 (human p38 kinase alpha; [6]): 5.97

SMILES: O=C(NCCCc1[nH]nc(-c2ccc(F)cc2)c1-c1ccncc1)NCC1CC1 [Example B-1316]
- inhibition at 1 µM [1, 3]: 36%
- pIC50 (human p38 kinase alpha; [4]): 7.59

SMILES: C[C@@H](NC(=O)NCCc1[nH]nc(-c2ccc(F)cc2)c1-c1ccncc1)c1ccccc1 [Example B-1045]
- U937 Cell % inhib @ conc. (uM) [1, 2]: 25.0% @
- P38 alpha kinase % inhib @ conc. (uM) (human p38 kinase alpha): 78.0% @

SMILES: CC(NC(=O)c1cccc(Br)c1)c1[nH]nc(-c2ccc(F)cc2)c1-c1ccncc1 (stereo not shown) [Example B-0539]
- inhibition at 1 µM ([1]; Homo sapiens, TNF production in human U937 cells stimulated with LPS, read-out: U937 Cell % inhib @ conc.): 21%
- pIC50 (human p38 kinase alpha; [6]): 5.55

SMILES: O=S(=O)(c1cccc(Cl)c1Cl)N1CCC(c2[nH]nc(-c3ccc(F)cc3)c2-c2ccncc2)CC1 [Example B-1448]
- inhibition at 1 µM [1, 3]: 22%
- pIC50 (human p38 kinase alpha; [4]): 5.84

SMILES: O=S(=O)(NCCc1[nH]nc(-c2ccc(F)cc2)c1-c1ccncc1)c1ccc(Cl)cc1Cl [Example B-1076]
- inhibition at 1 µM [1, 5]: 31%
- pIC50 (human p38 kinase alpha; [6]): 7.10

SMILES: CCCNC(=O)NC(C)c1[nH]nc(-c2ccc(F)cc2)c1-c1ccncc1 (stereo not shown) [Example B-0590]
- pIC50 ([1]; Homo sapiens, U-937, TNF production in human U937 cells stimulated with LPS, read-out: U937 Cell IC50): 4.42
- pIC50 (human p38 kinase alpha; [6]): 5.80

SMILES: C[C@@H](NC(=O)[C@H]1CCCN1)c1[nH]nc(-c2ccc(F)cc2)c1-c1ccncc1 [Example B-0428]
- U937 Cell % inhib @ conc. (uM) ([1]; TNF production in human U937 cells stimulated with LPS): 27.0% @
- pIC50 (human p38 kinase alpha; [6]): 6.00

SMILES: O=S(=O)(NCCc1[nH]nc(-c2ccc(F)cc2)c1-c1ccncc1)c1ccccc1F [Example B-1020]
- U937 Cell % inhib @ conc. (uM) [1, 2]: 36.0% @
- P38 alpha kinase % inhib @ conc. (uM) (human p38 kinase alpha): 87.0% @

SMILES: CN(C)c1cccc2c(S(=O)(=O)N3CCC(c4[nH]nc(-c5ccc(F)cc5)c4-c4ccncc4)CC3)cccc12 [Example B-1442]
- inhibition at 1 µM [1, 3]: 18%
- pIC50 (human p38 kinase alpha; [4]): 5.81

SMILES: Cc1[nH]nc(-c2ccc(F)c(F)c2)c1-c1ccncc1 [Example A-46]
- pIC50 ([1]; Table 5, LPS-stimulated U937 cells, TNF-α, read-out: U937 Cell Assay IC50): 6.48
- pIC50 (human p38 kinase alpha; activated human p38 kinase alpha, PHAS-I substrate, 50 μM unlabeled ATP, read-out: p38 kinase IC50): > 7.00
